Assay [1] concerns the target Endothelial PAS domain-containing protein 1 (Homo sapiens) (UniProt Q99814). The assay is described as follows: HIF-2a and HIF-1a reporter inhibition panel, dose response, selectivity assay for HIF-2a inhibitor project, cell-based, luminescence (AID 651581).
Assay [2] has as its target Hypoxia-inducible factor 1-alpha (Homo sapiens) (UniProt Q16665). Described as above. To be noted: HIF-1a.

Broadly, the IC50 is the concentration that gives 50% inhibition.

Calls of active or inactive are those of the source. No rule for the calls is given here.

Chain of Hypoxia-inducible factor 1-alpha (Homo sapiens) (Q16665 whole entry, looked up): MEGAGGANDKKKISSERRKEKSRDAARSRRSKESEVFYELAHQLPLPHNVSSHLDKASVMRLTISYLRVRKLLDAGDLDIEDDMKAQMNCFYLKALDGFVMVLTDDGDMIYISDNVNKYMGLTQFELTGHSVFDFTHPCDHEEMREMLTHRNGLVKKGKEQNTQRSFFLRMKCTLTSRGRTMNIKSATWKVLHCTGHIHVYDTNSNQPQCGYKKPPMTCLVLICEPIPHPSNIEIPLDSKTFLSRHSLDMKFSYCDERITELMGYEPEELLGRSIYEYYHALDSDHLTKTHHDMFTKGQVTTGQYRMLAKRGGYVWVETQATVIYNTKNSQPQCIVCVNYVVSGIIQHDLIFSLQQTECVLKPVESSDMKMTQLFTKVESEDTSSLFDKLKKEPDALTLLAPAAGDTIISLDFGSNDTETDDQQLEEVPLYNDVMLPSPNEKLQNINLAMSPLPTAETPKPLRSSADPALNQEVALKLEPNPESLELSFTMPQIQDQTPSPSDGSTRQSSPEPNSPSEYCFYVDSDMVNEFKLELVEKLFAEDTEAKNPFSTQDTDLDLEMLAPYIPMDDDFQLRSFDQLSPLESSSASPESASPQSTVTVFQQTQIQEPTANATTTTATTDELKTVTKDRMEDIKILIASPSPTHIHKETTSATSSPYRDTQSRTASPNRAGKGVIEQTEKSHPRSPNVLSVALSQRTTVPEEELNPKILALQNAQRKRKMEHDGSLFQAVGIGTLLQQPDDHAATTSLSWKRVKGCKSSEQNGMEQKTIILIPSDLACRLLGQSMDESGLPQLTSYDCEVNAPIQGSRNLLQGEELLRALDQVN

Consider `COc1ccc(OCc2cccc(C(=O)Nn3cc([N+](=O)[O-])cn3)c2)cc1`, for which the IC50 in assay [1] (HIF-2a PANC, run 1) was below 30 µM; in assay [1] (HIF-2a PANC, run 2), 13.4 µM; in assay [1] (HIF-2a, run 1) it was 11.3 µM; in assay [1] (HIF-2a, run 2) it was 9.04 µM; in assay [2] (run 1), 32.1 µM; in assay [2] (run 2), below 30 µM. The IC50 entry in assay [1] (HIF-2a, mean of runs) is “inactive”.
`O=C(O)c1cccc(CSc2nnc(-c3ccc(Cl)cc3)o2)c1`: the IC50 in assay [1] (HIF-2a PANC, mean of runs) is 2.81 µM; in assay [1] (HIF-2a PANC, run 1) it was 3.03 µM; in assay [1] (HIF-2a PANC, run 2) it was 2.6 µM; in assay [1] (HIF-2a, mean of runs) it was 1.97 µM; in assay [1] (HIF-2a, run 1), 1.87 µM; in assay [1] (HIF-2a, run 2) it was 2.07 µM. In addition, the IC50 in assay [2] (run 1) and in assay [2] (run 2) was above 99 µM each time.
On to `Cc1ccc(C)c(-c2nc3cc(N)ccc3o2)c1`, for which the IC50 in assay [1] (HIF-2a PANC, mean of runs) was 2.65 µM; in assay [1] (HIF-2a PANC, run 1), 2.6 µM; in assay [1] (HIF-2a PANC, run 2) it was 2.7 µM; in assay [1] (HIF-2a, mean of runs), 3.03 µM; in assay [1] (HIF-2a, run 1) it was 3.35 µM; in assay [1] (HIF-2a, run 2), 2.7 µM. The IC50 in assay [2] (run 1) is above 99 µM; in assay [2] (run 2), 56.4 µM.
For the molecule `COc1ccccc1N1C(=O)C=C(Sc2nc(C)cc(C)n2)C1=O`, the IC50 in assay [1] (HIF-2a PANC, mean of runs) is > 99 µM (inactive); in assay [1] (HIF-2a PANC, run 1), above 99 µM; in assay [1] (HIF-2a PANC, run 2), above 99 µM; in assay [1] (HIF-2a, run 1), 10.2 µM; in assay [1] (HIF-2a, run 2), 11.8 µM; in assay [2] (run 1), 68.3 µM. For the same molecule, the IC50 in assay [2] (run 2) is above 99 µM. In addition, in assay [1] (HIF-2a, mean of runs), the IC50 entry was “inactive”.
For the molecule `COc1ccc(-n2nc3ccc(N)cc3n2)cc1`, the IC50 in assay [1] (HIF-2a PANC, mean of runs) was 2.26 µM; in assay [1] (HIF-2a PANC, run 1), 3.23 µM; in assay [1] (HIF-2a PANC, run 2) it was 1.3 µM; in assay [1] (HIF-2a, run 1), 7.4 µM; in assay [1] (HIF-2a, run 2), 14.9 µM; in assay [2] (mean of runs) it was 43.5 µM. Besides, the IC50 in assay [2] (run 1) worked out at 24.9 µM; in assay [2] (run 2) it was 62.1 µM. Moreover, the IC50 result in assay [1] (HIF-2a, mean of runs) was “inactive”.
In the case of `O=Cc1ccc(-c2cccs2)s1`, the IC50 in assay [1] (HIF-2a PANC, mean of runs) was > 99 µM (inactive); in assay [1] (HIF-2a PANC, run 1), above 99 µM; in assay [1] (HIF-2a PANC, run 2), above 99 µM; in assay [1] (HIF-2a, mean of runs), 5.55 µM; in assay [1] (HIF-2a, run 1), 5.49 µM; in assay [1] (HIF-2a, run 2) it was 5.62 µM. Besides, the IC50 in assay [2] (run 1) and in assay [2] (run 2) was above 99 µM each time.
As for `Cc1nc(SCCC(=O)O)c2cc(-c3ccccc3)sc2n1`, in assay [1] (HIF-2a PANC, mean of runs), the IC50 entry is “inactive”. Also, the IC50 in assay [1] (HIF-2a PANC, run 1) is 1.02 µM; in assay [1] (HIF-2a PANC, run 2), 1.53 µM; in assay [1] (HIF-2a, mean of runs), 0.212 µM; in assay [1] (HIF-2a, run 1), 0.196 µM; in assay [1] (HIF-2a, run 2) it was 0.228 µM; in assay [2] (run 1), above 99 µM. The IC50 in assay [2] (run 2) is 1.56 µM.
Take `O=C(O)c1cccc(COc2ccccc2Cl)c1`: the IC50 in assay [1] (HIF-2a PANC, run 1) was 21.1 µM; in assay [1] (HIF-2a PANC, run 2), above 99 µM; in assay [1] (HIF-2a, mean of runs), 2.58 µM; in assay [1] (HIF-2a, run 1), 2.52 µM; in assay [1] (HIF-2a, run 2), 2.65 µM; in assay [2] (mean of runs), 21.2 µM. Also, the values for the IC50 in assay [2] (run 1) and in assay [2] (run 2) were 17.8 µM and 24.6 µM, respectively.
Consider `COc1ccc(OCc2cccc(C(=O)O)c2)cc1`, for which the IC50 in assay [1] (HIF-2a PANC, run 1) was above 99 µM; in assay [1] (HIF-2a PANC, run 2) it was below 30 µM; in assay [1] (HIF-2a, mean of runs) it was 0.781 µM; in assay [1] (HIF-2a, run 1) it was 0.76 µM; in assay [1] (HIF-2a, run 2), 0.802 µM; in assay [2] (mean of runs), 26.3 µM. Besides, the IC50 was 19 µM in assay [2] (run 1) and 33.7 µM in assay [2] (run 2).
For `Nc1ccc(-c2cc3ccccc3c(=O)o2)cc1`, the IC50 is 0.7 µM in assay [1] (HIF-2a PANC, mean of runs); 0.782 µM in assay [1] (HIF-2a PANC, run 1); 0.618 µM in assay [1] (HIF-2a PANC, run 2); below 1 µM in assay [1] (HIF-2a, mean of runs); below 1 µM in assay [1] (HIF-2a, run 1); below 1 µM in assay [1] (HIF-2a, run 2). In addition, the IC50 in assay [2] (run 1) was 0.423 µM; in assay [2] (run 2), above 99 µM.
As to `COc1ccc(C(=O)/C=C/C(=O)N(CC(=O)NCCC(C)C)Cc2cccs2)c(O)c1`, the IC50 is above 99 µM in assay [1] (HIF-2a PANC, run 1); 63.8 µM in assay [1] (HIF-2a PANC, run 2); 3.88 µM in assay [1] (HIF-2a, mean of runs); 4.21 µM in assay [1] (HIF-2a, run 1); 3.55 µM in assay [1] (HIF-2a, run 2); 12.8 µM in assay [2] (mean of runs). Besides, the IC50 in assay [2] (run 1) was 9.47 µM; in assay [2] (run 2), 16 µM.
Turning to `CCOC(=O)Cc1csc(NC(=S)NC(=O)c2ccccc2C)n1`, the IC50 is above 99 µM in assay [1] (HIF-2a PANC, run 1); 49 µM in assay [1] (HIF-2a PANC, run 2); 15 µM in assay [1] (HIF-2a, run 1); 14.5 µM in assay [1] (HIF-2a, run 2); 22.8 µM in assay [2] (run 1); 37.2 µM in assay [2] (run 2). Moreover, the IC50 entry was “inactive” in assay [1] (HIF-2a, mean of runs) and “inactive” in assay [2] (mean of runs).
For the molecule `O=C1C=C(c2ccc(Cl)cc2)C(=O)N1Nc1ccccc1`, the IC50 entry in assay [1] (HIF-2a PANC, mean of runs) was “inactive”. Moreover, the IC50 was 29.9 µM in assay [1] (HIF-2a PANC, run 1); 75.9 µM in assay [1] (HIF-2a PANC, run 2); 5.66 µM in assay [1] (HIF-2a, mean of runs); 5.69 µM in assay [1] (HIF-2a, run 1); 5.63 µM in assay [1] (HIF-2a, run 2); 25.8 µM in assay [2] (mean of runs). Further, the IC50 in assay [2] (run 1) worked out at 22.8 µM; in assay [2] (run 2), 28.9 µM.

These data come from PubChem BioAssay AID651581 (Sanford-Burnham Center for Chemical Genomics, 2012).
